Values joined by “and” are separate entries in the source; they are usually repeats but may differ in a detail not shown here. Equal values may be shown once.
Tests used:
[1] = Average zeta potential of liposomes made from cationic silyl lipids (Tables 1A, 1B); assay type: physicochemical
Excerpt: (§1) For colloidal dispersions, zeta potential is a useful measurement of the difference in electrokinetic potential between the dispersion medium and the stationary layer of fluid attached to the dispersed particle. The magnitude of the zeta potential indicates the degree of electrostatic repulsion between adjacent, similarly charged particles in a dispersion. A high zeta potential is an indicator of stability (resistance to aggregation). Both zeta potential and size can be determined using a zeta Potential Analyzer. Clogston J D et al., Methods Mol Biol. 2011; 697:63-70.
(§2) FIGS. 5A to 5C and TABLE 1A provide an illustration of such empirical determination: the effect of the length of the lipid tail, the end group, and the positioning of the silyl group. In this illustration, other properties of the lipid structure and liposome composition were kept constant. The liposome formulations just contained the cationic silyl lipids indicated, and Milli Q™ purified water.
(§3) FIGS. 7A to 7C and TABLE 1B provide another illustration of how structure of the silyl lipid can affect properties of nanoparticles.
(§4) Structural features such as tail length, positioning of the silicon group (n1, n2), and branching (as in 8,Si, (8)3-DOTMA) can influence liposome properties.

[2] = Average size of liposomes made from cationic silyl lipids (Tables 1A, 1B); assay type: physicochemical; settings: for Avg. Size: Table 1A, liposome formulations of the cationic silyl lipid only in Milli Q purified water; for Avg size: Table 1B, sila-DOTMA analog liposomes
Excerpt: as §1, §2, §3, §4

[3] = Table 1A, liposome formulations of the cationic silyl lipid only in Milli Q purified water
[4] = Table 1B, sila-DOTMA analog liposomes, two values given

Row | SMILES | Avg. zeta Potential [1, 3] | Avg. Size [2] [nm] | Avg. zeta Potential [1, 4] [mV] | Avg size [2] [nm]
1 | C[N+](C)(C)CC(COC(=O)CCCCCCC[Si](C)(C)C1CCCCC1)OC(=O)CCCCCCC[Si](C)(C)C1CCCCC1 (centres unmarked) [QP8SiCy] | 57 mV and 71 mV | 29 |  | 
2 | CCCC[Si](C)(C)CCCCCCOCC(C[N+](C)(C)C)OCCCCCC[Si](C)(C)CCCC (centres unmarked) [6, Si, 4-DOTMA] |  |  | 65 | 79
3 | C[N+](C)(C)CC(COCCCCCCCC[Si](C)(C)c1ccccc1)OCCCCCCCC[Si](C)(C)c1ccccc1 (centres unmarked) [8, Si, Ph-DOTMA] |  |  | 62 | 215
4 | C[N+](C)(C)CC(COC(=O)CCCCCCC[Si](C)(C)c1ccccc1)OC(=O)CCCCCCC[Si](C)(C)c1ccccc1 (centres unmarked) [QP8SiPh] | 59 mV and 73 mV | 21 |  | 

Second part, the compound after the results:

Row | Avg. zeta Potential [1, 3] | Avg. Size [2] [nm] | Avg. zeta Potential [1, 4] [mV] | Avg size [2] [nm] | SMILES
5 | 67 mV | 38 |  |  | CCCCCCCC[Si](C)(C)CCCCCCCC(=O)OCC(C[N+](C)(C)C)OC(=O)CCCCCCC[Si](C)(C)CCCCCCCC (centres unmarked) [QP8Si8]
6 | 74 mV | 59 |  |  | CCCCCCCCC[Si](C)(C)CCCCCCC(=O)OCC(C[N+](C)(C)C)OC(=O)CCCCCC[Si](C)(C)CCCCCCCCC (centres unmarked) [QP7Si9]
7 | 65 mV | 21 |  |  | CCCC[Si](C)(C)CCCCC(=O)OCC(C[N+](C)(C)C)OC(=O)CCCC[Si](C)(C)CCCC (centres unmarked) [QP5Si4]

Source: patent US12396949B2, “Technology for improving properties of lipid nanoparticles using lipids in which cis-unsaturated bonds are substituted with a silicon atom” (The Regents of the University of California, priority 2022, dated 2025)
